Columns and labels:
Type in all cases: in vivo
Hartley guinea pigs [1] = assay: Test Example 3 (safety test), photo-toxicity; conditions: 1 wt % solution in acetone; light source FL-40S.BLB (300-400 nm); female guinea pigs
Description: Test Example 3 (safety test)
(§1) Five (5) or ten (10) Hartley guinea pigs (female, body weight: 350-400 g) are used. A 1 wt % solution of each test compound in acetone was prepared, and the solution was tested with respect to its sensitizing potential, primary stimulation to the skin, and photo-toxicity.
As test compounds, three compounds, i.e., compound Nos. 1, 10, and 14 in Table 1, were used.
The positive control compound used for the photo-toxicity was an ethanol solution containing 100 ppm of 8-methoxypsoralen (product of Aldrich). The light source used was FL-40S.BLB (300-400 nm; manufactured by Toshiba).

Hartley guinea pigs [2] = assay: Test Example 3 (safety test), primary stimulation to the skin; conditions: 1 wt % solution in acetone; female guinea pigs
Description: as §1, with “Test Example 3 (safety test) Method Five” for “Five”, “photo-toxicity. As test compounds, three compounds, i.e., compound Nos. 1, 10, and 14 in Table 1, were used.” for “photo-toxicity.”

Hartley guinea pigs [3] = assay: Test Example 3 (safety test), sensitization, maximization method; conditions: 1 wt % solution in acetone; induction at 10 wt %; female guinea pigs
Description: Test Example 3 (safety test) Method Five (5) or ten (10) Hartley guinea pigs (female, body weight: 350-400 g) are used. A 1 wt % solution of each test compound in acetone was prepared, and the solution was tested with respect to its sensitizing potential, primary stimulation to the skin, and photo-toxicity. As test compounds, three compounds, i.e., compound Nos. 1, 10, and 14 in Table 1, were used. The sensitization test was performed in accordance with the maximization method proposed by Magnusson [Magnusson, B and Kligman, A.M.,; "The identification of contact allergens by animal assay. The guinea pig maximization test" (J. Inv. Derm., 52, p268-276 (1969))]. The induction of sensitization was performed at a concentration of 10 wt %.

CCCCCCCCCCCCNCc1ccc2c(c1)OCO2 [Compound No. 1]
Photo-toxicity (Hartley guinea pigs [1]): 0/5 | Primary stimulation (Hartley guinea pigs [2]): 0/5 | Sensitization (Hartley guinea pigs [3]): 0/10

CCCCCCCCCCCCNCc1ccc(OC)c(O)c1 [Compound No. 10, N-lauryl-3-hydroxy-4-methoxybenzylamine]
Photo-toxicity (Hartley guinea pigs [1]): 0/5 | Primary stimulation (Hartley guinea pigs [2]): 0/5 | Sensitization (Hartley guinea pigs [3]): 0/10

CCCCCCCCCCCCN(C)Cc1cc(OC)c(OC)cc1OC [Compound No. 14]
Photo-toxicity (Hartley guinea pigs [1]): 0/5 | Primary stimulation (Hartley guinea pigs [2]): 0/5 | Sensitization (Hartley guinea pigs [3]): 0/10

From US5786386A, “Antibacterial and fungicidal agent” (Takasago International Corporation, priority 1995, dated 1998)
